Read-outs that look alike come from different tables or passages of the source. Where a SMILES comes first, the peptide text is derived from it. Side-chain parts run from the residue outwards. [ ]: non-standard residue; d: D form. The star is where a group is joined. αMePhe(2-F) = C[C@](N)(Cc1ccccc1F)C(=O)O; C14 diacid = O=C(O)CCCCCCCCCCCCC(=O)*; αMeY = C[C@](N)(Cc1ccc(O)cc1)C(=O)O; αMeL = CC(C)C[C@](C)(N)C(=O)O; Orn = NCCC[C@H](N)C(=O)O; AEEA = NCCOCCOCC(=O)O; Aib = CC(C)(N)C(=O)O
Columns and labels:
Format in all cases: cell-based
[1] = molecular target: hGLP-1R (Homo sapiens, UniProt P43220); assay: Functional cAMP formation (HTRF) in HEK-293 clonal cells expressing hGLP-1R, 0.1% bovine casein, without or with 1.0% human serum albumin; parameters: expressed in transfected cells; details: 37° C.; for EC50: geometric mean, read-out: hGLP-1R EC50, nM (SEM, n); for Emax: percent of maximal response to GLP-1(7-36)NH2, read-out: hGLP-1R Emax, % ± SEM
Method in brief: (§1)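 Cells were stimulated with peptide for 30 min at 37° C, then lysed in buffer carrying cAMP-d2 and anti-cAMP Eu3+-cryptate for a competitive HTRF read after at least 60 min at room temperature. The 665/620 nm ratio was converted to nM cAMP against a standard curve.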

[2] = molecular target: T1, hGCGR (Homo sapiens, UniProt P47871); assay: Functional cAMP formation (HTRF) in HEK-293 clonal cells expressing hGCGR, 0.1% bovine casein, without or with 1.0% human serum albumin; details: 37° C., geometric mean, read-out: hGCGR EC50, nM (SEM, n)
T1 construct: expressed in transfected cells
Method in brief: as §1

[3] = molecular target: T2, hGIPR (Homo sapiens, UniProt P48546); assay: Functional cAMP formation (HTRF) in HEK-293 clonal cells expressing hGIPR, 0.1% bovine casein, without or with 1.0% human serum albumin; details: 37° C.; for Emax: percent of maximal response to GIP(1-42)NH2, read-out: hGIPR Emax, % ± SEM; for EC50: cAMP, 0.1% bovine casein (no human serum albumin), geometric mean, read-out: hGIPR EC50, nM (SEM, n)
T2 construct: expressed in transfected cells
T2 sequence (P48546 22-466): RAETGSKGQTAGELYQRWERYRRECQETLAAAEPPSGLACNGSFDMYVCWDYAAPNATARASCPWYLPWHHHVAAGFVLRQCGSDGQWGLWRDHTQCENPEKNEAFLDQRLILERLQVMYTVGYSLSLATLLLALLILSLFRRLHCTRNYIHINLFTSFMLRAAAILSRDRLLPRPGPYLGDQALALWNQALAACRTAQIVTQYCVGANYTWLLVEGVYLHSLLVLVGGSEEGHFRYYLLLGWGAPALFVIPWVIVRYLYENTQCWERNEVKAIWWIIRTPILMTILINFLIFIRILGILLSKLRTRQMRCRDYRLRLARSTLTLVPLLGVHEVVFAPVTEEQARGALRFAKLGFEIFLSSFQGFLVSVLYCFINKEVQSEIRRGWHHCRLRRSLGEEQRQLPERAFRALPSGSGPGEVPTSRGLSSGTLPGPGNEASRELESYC
Method in brief: as §1

[4] = cAMP, 0.1% bovine casein (no human serum albumin)
[5] = 0.1% bovine casein and 1.0% human serum albumin
[6] = HEK293, 0.1% bovine casein and 1.0% human serum albumin
[7] = HEK293, cAMP, 0.1% bovine casein, arithmetic mean

T1 sequence (P47871 26-477): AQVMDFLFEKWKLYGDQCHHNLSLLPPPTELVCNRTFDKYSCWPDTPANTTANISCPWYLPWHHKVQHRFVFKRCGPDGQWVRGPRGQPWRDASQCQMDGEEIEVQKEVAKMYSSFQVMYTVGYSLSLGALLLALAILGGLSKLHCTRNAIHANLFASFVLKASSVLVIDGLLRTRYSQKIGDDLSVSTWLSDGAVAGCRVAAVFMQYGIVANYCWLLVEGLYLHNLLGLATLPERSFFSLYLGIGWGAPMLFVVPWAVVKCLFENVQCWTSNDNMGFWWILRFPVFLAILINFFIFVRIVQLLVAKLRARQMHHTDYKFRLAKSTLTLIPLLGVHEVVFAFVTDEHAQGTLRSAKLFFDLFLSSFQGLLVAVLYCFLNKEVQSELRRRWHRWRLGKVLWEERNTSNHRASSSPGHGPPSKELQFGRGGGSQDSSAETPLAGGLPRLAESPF
Chain of hGLP-1R (P43220 24-463): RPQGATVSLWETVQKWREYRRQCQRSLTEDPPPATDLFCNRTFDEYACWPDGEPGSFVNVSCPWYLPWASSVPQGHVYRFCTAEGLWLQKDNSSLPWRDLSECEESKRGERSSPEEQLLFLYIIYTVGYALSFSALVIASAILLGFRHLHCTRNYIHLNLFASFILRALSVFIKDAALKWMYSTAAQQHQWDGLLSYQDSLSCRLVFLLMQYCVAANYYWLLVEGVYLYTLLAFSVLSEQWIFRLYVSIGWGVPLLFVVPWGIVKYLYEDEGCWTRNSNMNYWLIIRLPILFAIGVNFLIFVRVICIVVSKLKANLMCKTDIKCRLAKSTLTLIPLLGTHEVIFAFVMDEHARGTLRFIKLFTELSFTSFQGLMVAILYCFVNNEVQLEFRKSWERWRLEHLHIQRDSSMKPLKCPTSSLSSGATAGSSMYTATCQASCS

Structure (SMILES)	EC50 [1, 4] [nM]	EC50 [2, 5] [nM]	EC50 [2, 4] [nM]	Emax [3, 6] [%]	Emax [3, 7] [%]	EC50 [3] [nM]	EC50 [1, 5] [nM]	Emax [1, 6] [%]	Emax [1, 7] [%]
CC[C@H](C)[C@H](NC(=O)[C@H](CC(C)C)NC(=O)[C@](C)(Cc1ccc(O)cc1)NC(=O)[C@@H](CCC(=O)O)NC(=O)[C@@H](NC(=O)[C@H](Cc1ccccc1)NC(=O)[C@H](CCCCNC(=O)COCCOCCNC(=O)COCCOCCNC(=O)CCCCCCCCCCCCC(=O)O)NC(=O)C(C)(C)NC(=O)[C@H](CCC(N)=O)NC(=O)[C@H](C)NC(=O)[C@H](CCCCNC(=O)COCCOCCNC(=O)COCCOCCNC(=O)CCCCCCCCCCCCC(=O)O)NC(=O)[C@H](CCCN)NC(=O)[C@H](CC(=O)O)NC(=O)[C@H](CC(C)C)NC(=O)[C@](C)(CC(C)C)NC(=O)[C@@H](NC(=O)[C@H](CO)NC(=O)[C@H](Cc1ccc(OC)cc1)NC(=O)[C@H](CC(=O)O)NC(=O)[C@H](CO)NC(=O)[C@@H](NC(=O)[C@](C)(Cc1ccccc1F)NC(=O)[C@@H](NC(=O)CNC(=O)[C@H](CCC(=O)O)NC(=O)C(C)(C)NC(=O)[C@@H](N)Cc1ccc(O)cc1)[C@@H](C)O)[C@@H](C)O)[C@@H](C)CC)[C@@H](C)CC)C(=O)N[C@@H](CCC(=O)O)C(=O)NCC(=O)NCC(=O)N1CCC[C@H]1C(=O)N[C@@H](CO)C(=O)N[C@@H](CO)C(=O)NCC(=O)N[C@@H](C)C(=O)N1CCC[C@H]1C(=O)N1CCC[C@H]1C(=O)N1CCC[C@H]1C(=O)N[C@@H](CO)C(N)=O [Example 265] (H-Y[Aib]EGT[αMePhe(2-F)]TSDY(Me)SI[αMeL]LD[Orn]K([AEEA-AEEA-C14 diacid])AQ[Aib]K([AEEA-AEEA-C14 diacid])FI[dE][αMeY]LIEGGPSSGAPPPS-NH2)	0.262	> 9950	> 9950	96	100	0.0145			
CC[C@H](C)[C@H](NC(=O)[C@H](CC(C)C)NC(=O)[C@](C)(Cc1ccc(O)cc1)NC(=O)[C@@H](CCC(=O)O)NC(=O)[C@@H](NC(=O)[C@H](Cc1ccccc1)NC(=O)[C@H](CCC(=O)O)NC(=O)C(C)(C)NC(=O)[C@H](CCC(N)=O)NC(=O)[C@H](C)NC(=O)[C@H](CCCCNC(=O)COCCOCCNC(=O)COCCOCCNC(=O)CCCCCCCCCCCCC(=O)O)NC(=O)[C@H](CCCN)NC(=O)[C@H](CC(=O)O)NC(=O)[C@H](CC(C)C)NC(=O)[C@](C)(CC(C)C)NC(=O)[C@@H](NC(=O)[C@H](CO)NC(=O)[C@H](Cc1ccc(OC)cc1)NC(=O)[C@H](CC(=O)O)NC(=O)[C@H](CO)NC(=O)[C@@H](NC(=O)[C@](C)(Cc1ccccc1F)NC(=O)[C@@H](NC(=O)CNC(=O)[C@H](CCC(=O)O)NC(=O)C(C)(C)NC(=O)[C@@H](N)Cc1ccc(O)cc1)[C@@H](C)O)[C@@H](C)O)[C@@H](C)CC)[C@@H](C)CC)C(=O)N[C@@H](CCCCNC(=O)COCCOCCNC(=O)COCCOCCNC(=O)CCCCCCCCCCCCC(=O)O)C(=O)NCC(=O)NCC(=O)N1CCC[C@H]1C(=O)N[C@@H](CO)C(=O)N[C@@H](CO)C(=O)NCC(=O)N[C@@H](C)C(=O)N1CCC[C@H]1C(=O)N1CCC[C@H]1C(=O)N1CCC[C@H]1C(=O)N[C@@H](CO)C(N)=O [Example 266] (H-Y[Aib]EGT[αMePhe(2-F)]TSDY(Me)SI[αMeL]LD[Orn]K([AEEA-AEEA-C14 diacid])AQ[Aib]EFI[dE][αMeY]LIK([AEEA-AEEA-C14 diacid])GGPSSGAPPPS-NH2)		> 9950	> 9950	82.7	93.2	0.0136	5.83	97.6	90.5

Source: US20230265151A1, “GIP/GLP1 CO-AGONIST COMPOUNDS” (priority 2020, published 2023)
